According to patent publication US8304447B2, “2-acylaminopropoanol-type glucosylceramide synthase inhibitors” (Genzyme Corporation, priority 2007, dated 2012):
Where two headings read alike, the source gives them in different places.

System: GM3
Experiment: GM3 Elisa assay
Assay type: cell-based
Settings: B16-FO cells, read-out: IC50_uM_Mean
Method in brief: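 Murine B16-FO melanoma cells attached 6 h on collagen, then exposed to compounds for 2 days at 37 °C. After formaldehyde fixation, cell-surface GM3 (NeuAc) was detected by anti-GM3 IgM and peroxidase anti-mouse IgM with Quantablu fluorescence (Ex 325/Em 420).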

[1] = 48 h, Table 2, 2 days incubation

SMILES	IC50 [1] [µM]	other results
COc1ccc(OCCC(=O)N[C@H](CN2CCCCC2)[C@H](O)c2ccc3c(c2)OCCO3)cc1 [Compound 261, N-((1R,2R)-1-(2,3-dihydrobenzo[β][1,4]dioxin-6-yl)-1-hydroxy-3-(piperidin-1-yl)propan-2-yl)-3-(4-methoxyphenoxy)propanamide]	0.1 to 1	
COc1ccc(OCCC(=O)N[C@H](CN2CCCC2)[C@H](O)c2ccc(OC)cc2)cc1 [Compound 262, N-[2-Hydroxy-2-(4-methoxy-phenyl)-1-pyrrolidin-1-ylmethyl-ethyl]-3-(4-methoxy-phenoxy)-propionamide]	≤ 0.1	
COc1ccc(CCCC(=O)N[C@H](CN2CCCC2)[C@H](O)c2ccc(OC)cc2)cc1 [Compound 263]	0.1 to 1	
Cc1ccc(C(=O)CCC(=O)N[C@H](CN2CCCC2)[C@H](O)c2ccc3c(c2)CCCC3)cc1 [Compound 264]	≤ 0.1	
CC(C)Oc1ccc(C(=O)CCCC(=O)N[C@H](CN2CCCC2)[C@H](O)c2ccc3c(c2)OCO3)cc1 [Compound 265, N-((1R,2R)-1-(benzo[ε][1,3]-dioxol-5-yl)-1-hydroxy-3-(pyrrolidin-1-yl)propan-2-yl)-5-(4-isopropoxyphenyl)-5-oxopentanamide (2S,3S)-2,3-dihydroxysuccinate]	≤ 0.1	
CC(C)Oc1ccc(C(=O)CCCCC(=O)N[C@H](CN2CCCC2)[C@H](O)c2ccc3c(c2)OCO3)cc1 [Compound 266]	≤ 0.1	
COc1ccc(C(=O)CCCCC(=O)N[C@H](CN2CCCC2)[C@H](O)c2ccc3c(c2)OCO3)cc1 [Compound 267, N-((1R,2R)-1-(benzo[δ][1,3]dioxol-5-yl)-1-hydroxy-3-(pyrrolidin-1-yl)propan-2-yl)-6-(4-methoxyphenyl)-6-oxohexanamide (2S,3S)-2,3-dihydroxysuccinate]	≤ 0.1	
CC(C)Oc1ccc(C(=O)CCCCCC(=O)N[C@H](CN2CCCC2)[C@H](O)c2ccc3c(c2)OCO3)cc1 [Compound 268, N-((1R,2R)-1-(benzo[δ][1,3]dioxol-5-yl)-1-hydroxy-3-(pyrrolidin-1-yl)propan-2-yl)-7-(4-isopropoxyphenyl)-7-oxoheptanamide (2S,3S)-2,3-dihydroxysuccinate]	≤ 0.1	
COc1ccc(C(=O)CCCCC(=O)N[C@H](CN2CCCC2)[C@H](O)c2ccc(OC)cc2)cc1 [Compound 269]	≤ 0.1	
COc1ccc([C@@H](O)[C@@H](CN2CCCC2)NC(=O)CCCC(=O)c2ccc(OC(C)C)cc2)cc1 [Compound 270, 5-(4-Isopropoxy-phenyl)-5-oxo-pentanoic acid [2-hydroxy-2-(4-methoxy-phenyl)-1-pyrrolidin-1-ylmethyl-ethyl]amide]	≤ 0.1	
COc1ccc([C@@H](O)[C@@H](CN2CCCC2)NC(=O)CCCCCC(=O)c2ccc(OC(C)C)cc2)cc1 [Compound 271]	≤ 0.1	
COc1ccc([C@@H](O)[C@@H](CN2CCCC2)NC(=O)CCCCC(=O)c2ccc(OC(C)C)cc2)cc1 [Compound 272]	≤ 0.1	
COc1ccc([C@@H](O)[C@@H](CN2CCCC2)NC(=O)CCCCCC(C)(C)OC)cc1 [Compound 273]	0.1 to 1	
COc1ccc(OCCC(=O)N[C@H](CN2CCCC2)[C@H](O)c2ccc(OC)c(OC)c2)cc1 [Compound 274]	1 to 3	
COC(=O)CO[C@H](c1ccc2c(c1)OCCO2)[C@@H](CN1CCCC1)NC(=O)CCOc1ccc(OC)cc1 [Compound 275]	≤ 0.1	
COc1ccc(C(=O)CCCCCC(=O)N[C@H](CN2CCCC2)[C@H](O)c2ccc(OC)c(OC)c2)cc1 [Compound 276]	0.1 to 1	
COc1ccc([C@@H](O)[C@@H](CN2CCCC2)NC(=O)CCCCCC(C)(C)OC)cc1OC [Compound 277]	3 to 10	
COc1ccc([C@@H](O)[C@@H](CN2CCCC2)NC(=O)CCCOc2ccc(C(C)=O)cc2)cc1OC [Compound 278]	> 10	
COc1ccc([C@@H](O)[C@@H](CN2CCCC2)NC(=O)CCCCCC(C)=O)cc1 [Compound 279]	1 to 3	
COc1ccc(C(=O)CCCC(=O)N[C@H](CN2CCCC2)[C@H](O)c2ccc3c(c2)OCCO3)cc1OC [Compound 282, N-((1R,2R)-1-(2,3-dihydrobenzo[β][1,4]dioxin-6-yl)-1-hydroxy-3-(pyrrolidin-1-yl)propan-2-yl)-5-(3,4-dimethoxyphenyl)-5-oxopentanamide]	1 to 3	

SMILES	IC50 [1] [µM]	other results
Cc1ccc(C(=O)CCCC(=O)N[C@H](CN2CCCC2)[C@H](O)c2ccc3c(c2)OCCO3)cc1 [Compound 283, N-((1R,2R)-1-(2,3-dihydrobenzo[b][1,4]dioxin-6-yl)-1-hydroxy-3-(pyrrolidin-1-yl)propan-2-yl)-5-oxo-5-p-tolylpentanamide]	≤ 0.1	
CC(C)Oc1ccc(C(=O)CCCC(=O)N[C@H](CN2CCCC2)[C@H](O)c2ccc3c(c2)OCCO3)cc1 [Compound 284, N-((1R,2R)-1-(2,3-dihydrobenzo[β][1,4]dioxin-6-yl)-1-hydroxy-3-(pyrrolidin-1-yl)propan-2-yl)-5-(4-isopropoxyphenyl)-5-oxopentanamide]	≤ 0.1	
COc1ccc(C(=O)CCCCCC(=O)N[C@H](CN2CCCC2)[C@H](O)c2ccc(OC)cc2)cc1 [Compound 285, 7-(4-Methoxy-phenyl)-7-oxo-heptanoic acid [2-hydroxy-2-(4-methoxy-phenyl)-1-pyrrolidin-1-ylmethyl-ethyl]-amide]	≤ 0.1	
C[C@@H](NC(=O)N[C@H](CN1CCCC1)[C@H](O)c1ccc2c(c1)OCCO2)c1ccccc1 [Compound 286, 1-((1R,2R)-1-(2,3-dihydrobenzo[β][1,4]dioxin-6-yl)-1-hydroxy-3-(pyrrolidin-1-yl)propan-2-yl)-3-(®-1-phenylethyl)urea]	3 to 10	
O=C(NCCc1cccs1)N[C@H](CN1CCCC1)[C@H](O)c1ccc2c(c1)OCCO2 [Compound 287, 1-((1R,2R)-1-(2,3-dihydrobenzo[β][1,4]dioxin-6-yl)-1-hydroxy-3-(pyrrolidin-1-yl)propan-2-yl)-3-(2-(thiophen-2-yl)ethyl)urea]	1 to 3	
COc1ccc([C@@H](O)[C@@H](CN2CCCC2)NC(=O)OCc2ccccc2)cc1 [Compound 289, benzyl (1R,2R)-1-hydroxy-1-(4-methoxyphenyl)-3-(pyrrolidin-1-yl)propan-2-ylcarbamate]		IC50 (Table 2, 2 days incubation): 0.1 to 1 µM
O=C(CCCCCCCCCCCc1cccnc1)N[C@H](CN1CCCC1)[C@H](O)c1ccc2c(c1)OCCO2 [Compound 305]		IC50 (48 h, Table 1, 2 days incubation): ≤ 0.1 µM
CCCCCCCC(=O)N[C@H](CN1CCCC1)[C@H](O)c1ccc(OC)c(F)c1 [Compound 340]		IC50 (Table 3 (IC 50 Values)): 0.1 to 1 µM
COc1ccc(OCCC(=O)N[C@H](CN2CCCC2)[C@H](O)c2ccc(OC)c(F)c2)cc1 [Compound 341]		IC50 (Table 3 (IC 50 Values)): ≤ 0.1 µM
COc1ccc([C@@H](O)[C@@H](CN2CCCC2)NC(=O)Cc2ccc(OC(F)(F)F)cc2)cc1F [Compound 342]		IC50 (Table 3 (IC 50 Values)): 0.1 to 1 µM
COc1ccc(C(=O)CCCC(=O)N[C@H](CN2CCCC2)[C@H](O)c2ccc(OC)c(F)c2)cc1 [Compound 343]		IC50 (Table 3 (IC 50 Values)): 0.1 to 1 µM
COc1ccc(C(=O)CCCCC(=O)N[C@H](CN2CCCC2)[C@H](O)c2ccc(OC)c(F)c2)cc1 [Compound 344]		IC50 (Table 3 (IC 50 Values)): ≤ 0.1 µM
COc1ccc(C(=O)CCCCCC(=O)N[C@H](CN2CCCC2)[C@H](O)c2ccc(OC)c(F)c2)cc1 [Compound 345]		IC50 (Table 3 (IC 50 Values)): ≤ 0.1 µM
COc1ccc(C(=O)CCCC(=O)N[C@H](CN2CCCC2)[C@H](O)c2ccc(C)c(F)c2)cc1 [Compound 346]		IC50 (Table 3 (IC 50 Values)): 0.1 to 1 µM
Cc1ccc([C@@H](O)[C@@H](CN2CCCC2)NC(=O)Cc2ccc(OC(F)(F)F)cc2)cc1F [Compound 347]		IC50 (Table 3 (IC 50 Values)): 0.1 to 1 µM
CCCCCCCC(=O)N[C@H](CN1CCCC1)[C@H](O)c1ccc(C)c(F)c1 [Compound 348]		IC50 (Table 3 (IC 50 Values)): 0.1 to 1 µM
COc1ccc(OCCC(=O)N[C@H](CN2CCCC2)[C@H](O)c2ccc(C)c(F)c2)cc1 [Compound 349]		IC50 (Table 3 (IC 50 Values)): 0.1 to 1 µM
COc1ccc(C(=O)CCCCCC(=O)N[C@H](CN2CCCC2)[C@H](O)c2ccc(C)c(F)c2)cc1 [Compound 350]		IC50 (Table 3 (IC 50 Values)): ≤ 0.1 µM
COc1ccc(C(=O)CCCCC(=O)N[C@H](CN2CCCC2)[C@H](O)c2ccc(C)c(F)c2)cc1 [Compound 351]		IC50 (Table 3 (IC 50 Values)): 0.1 to 1 µM

More lines, main results first:

IC50 [1] [µM]	SMILES	other results
≤ 0.1	CCCCCCCCCCCCCCCC(=O)N[C@H](CN1CCCC1)[C@H](O)c1ccc(O)cc1 [Compound 309]	
1 to 3	CCCCCCCC(=O)N[C@H](CNCCCC)[C@H](O)c1ccc2c(c1)OCCO2 [Compound 310]	
1 to 3	CCCCCCCC(=O)N[C@H](CN1CCCC1)[C@H](O)CCCCCCC [Compound 311]	
0.1 to 1	CCCCCCCCCCCCCCCC(=O)N[C@H](CN1CCCC1)[C@H](O)CCCCCCC [Compound 312]	
≤ 0.1	CCCCCCCC(=O)N[C@H](CN1CCC(CN2CCCC2)C1)[C@H](O)c1ccc2c(c1)OCCO2 (some centres unmarked) [Compound 313]	
1 to 3	CCCCCCCC(=O)N[C@H](CN1C(C)CCC1C)[C@H](O)c1ccc2c(c1)OCCO2 (some centres unmarked) [Compound 314]	
0.1 to 1	CCCCCCCC(=O)N[C@H](CN1CCCC1)[C@H](OC)c1ccc2c(c1)OCCO2 [Compound 315]	
3 to 10	CCCCCCCC(=O)N[C@H](CN1CCCC1CN1CCCC1)[C@H](O)c1ccc2c(c1)OCCO2 (some centres unmarked) [Compound 316]	
0.1 to 1	CCCCCCCCCCCCCCCC(=O)N[C@H](CN1CCOCC1)[C@H](O)c1ccccc1 [Compound 317]	
0.1 to 1	CCCCCCCC(=O)N[C@H](CN1CCCC1)[C@H](O)c1cc(O)c2c(c1)OCCO2 [Compound 318]	
0.1 to 1	CCCCCCCC(=O)N[C@H](CN1CCCC1)[C@H](O)c1cc(OC)c2c(c1)OCCO2 [Compound 319]	
≤ 0.1	CCCCCCCC(=O)N[C@H](CN1CCCC1)[C@H](O)c1ccc(OC)cc1 [Compound 320, Octanoic acid [2-hydroxy-2(4-methoxy-phenyl)-1-Pyrrolidin1-ylmethyl-ethyl]-amide]	
1 to 3	CCCCCCCC(=O)N[C@H](CN1CCCC1)[C@H](O)c1ccc(OC)c(OC)c1 [Compound 321]	
0.1 to 1	CCCCCCCC(=O)N[C@H](CN1CCC(F)C1)[C@H](O)c1ccc2c(c1)OCCO2 (some centres unmarked) [Compound 322]	
